Patent US20260327204A1, “DEGRADERS OF CYCLIN-DEPENDENT KINASE 12/13, COMPOSITIONS, AND USES THEREOF” (ZHEJIANG UNIVERSITY, priority 2023, published 2026)

Experiments:
CDK13 = CDK13 (Homo sapiens, UniProt Q14004); experiment: Western blot degradation of CDK13 (Example 2); format: cell-based; design: degradation of CDK12/13 protein in leukemia cells KASUMI-1, MV4-11, and Jurkat; endogenous in cells; conditions: DC50 classes; cell line not given; read-out: CDK13 degradation Activity
CDK12 = CDK12 (Homo sapiens, UniProt Q9NYV4); experiment: Western blot degradation of CDK12 (Example 2); format: cell-based; design: degradation of CDK12/13 protein in leukemia cells KASUMI-1, MV4-11, and Jurkat; endogenous in cells; conditions: DC50 classes; cell line not given; read-out: CDK12 degradation Activity
How it was run: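 Leukemia lines KASUMI-1, MV4-11, Jurkat, plus MDA-MB-231 for a concentration series, treated at 0.01–3 μM for 3–48 h at 37 °C against DMSO control. Lysates in 4% SDS; CDK12/13 band intensity normalized to β-Actin or GAPDH to give degradation rate.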

[1] = Liver microsome stability, rat; format: in vitro ADME; conditions: liver microsomes
Description: (§1) • Compounds: Ketanserin, Formula 18, Formula 45 • Liver microsomes: Human liver microsomes (purchased from BioreclamationIVT); Dog, mouse, rat, and monkey liver microsomes (purchased from Xenotech)
(§2) Preparation of 500 μM compound solution: Add 5 μL of 10 mM compound solution and 95 μL of DMSO to an EP tube.
(§3) Preparation of solution containing 0.75 mg/mL liver microsomes and 1.5 μM compound: Add 1.5 μL of the 500 μM compound solution, 18.75 μL of the 20 mg/mL liver microsome solution, and 479.75 μL of PBS to an EP tube.
(§4) Preparation of 6 mM NADPH solution: Dissolve 5 mg of NADPH in 1 mL of PBS solution.
(§5) Add 30 μL of the solution containing 0.75 mg/mL liver microsomes and a concentration gradient of the compound to a 96-well plate. Add 15 μL of the 6 mM NADPH solution and 150 μL of a 1:1 acetonitrile:methanol solution containing an internal standard (IS). Vortex and centrifuge at 6,000 rpm for 10 min. 80 μL of the supernatant from each concentration sample is transferred to a 96-well plate containing 140 μL of pure water for LC/MS detection (injection volume of […]). […]
(§6) 80 μL of the supernatant from each well is transferred to a 96-well plate containing 140 μL of pure water for LC/MS detection (injection volume of […]). The compound concentration value is determined by comparing the corresponding mass spectrometry peak area with the standard curve. […]

[2] = Liver microsome stability, monkey; format: in vitro ADME; conditions: liver microsomes
Description: as §1, §2, §3, §4, §5, §6

[3] = Liver microsome stability, human; format: in vitro ADME; conditions: liver microsomes
Description: as §1, §2, §3, §4, §5, §6

[4] = Liver microsome stability, dog; format: in vitro ADME; conditions: liver microsomes
Description: as §1, §2, §3, §4, §5, §6

[5] = system: serine 2 in the C-terminal domain of RNA polymerase II (CTD-pSer2); experiment: Phosphorylation of serine 2 in the C-terminal domain of RNA polymerase II, Western blot; format: cell-based; conditions: MDA-MB-231, 24 h, concentration gradient
Description: Protein Western blot was used to determine the degradation of CDK12/13 protein in colorectal cancer cells HCT-116, breast cancer cells MDA-MB-231, and leukemia cells Jurkat. The two compounds with the best degradation effects were further validated for their ability to degrade CDK12/13 protein in MDA-MB-231 cells using a concentration gradient. The effect of the compounds on the phosphorylation of serine 2 in the C-terminal domain of RNA polymerase II (CTD-pSer2) was also measured.
(3) Compound treatment: The 50 mM compound stock solution was diluted with cell culture medium to a final concentration of 0.01 μM-3 μM. Cells were incubated in a 37 °C incubator with 5% CO2 for 3 h-48 h. The DMSO group served as the negative control.

Sequence of CDK13 (Q14004 whole entry): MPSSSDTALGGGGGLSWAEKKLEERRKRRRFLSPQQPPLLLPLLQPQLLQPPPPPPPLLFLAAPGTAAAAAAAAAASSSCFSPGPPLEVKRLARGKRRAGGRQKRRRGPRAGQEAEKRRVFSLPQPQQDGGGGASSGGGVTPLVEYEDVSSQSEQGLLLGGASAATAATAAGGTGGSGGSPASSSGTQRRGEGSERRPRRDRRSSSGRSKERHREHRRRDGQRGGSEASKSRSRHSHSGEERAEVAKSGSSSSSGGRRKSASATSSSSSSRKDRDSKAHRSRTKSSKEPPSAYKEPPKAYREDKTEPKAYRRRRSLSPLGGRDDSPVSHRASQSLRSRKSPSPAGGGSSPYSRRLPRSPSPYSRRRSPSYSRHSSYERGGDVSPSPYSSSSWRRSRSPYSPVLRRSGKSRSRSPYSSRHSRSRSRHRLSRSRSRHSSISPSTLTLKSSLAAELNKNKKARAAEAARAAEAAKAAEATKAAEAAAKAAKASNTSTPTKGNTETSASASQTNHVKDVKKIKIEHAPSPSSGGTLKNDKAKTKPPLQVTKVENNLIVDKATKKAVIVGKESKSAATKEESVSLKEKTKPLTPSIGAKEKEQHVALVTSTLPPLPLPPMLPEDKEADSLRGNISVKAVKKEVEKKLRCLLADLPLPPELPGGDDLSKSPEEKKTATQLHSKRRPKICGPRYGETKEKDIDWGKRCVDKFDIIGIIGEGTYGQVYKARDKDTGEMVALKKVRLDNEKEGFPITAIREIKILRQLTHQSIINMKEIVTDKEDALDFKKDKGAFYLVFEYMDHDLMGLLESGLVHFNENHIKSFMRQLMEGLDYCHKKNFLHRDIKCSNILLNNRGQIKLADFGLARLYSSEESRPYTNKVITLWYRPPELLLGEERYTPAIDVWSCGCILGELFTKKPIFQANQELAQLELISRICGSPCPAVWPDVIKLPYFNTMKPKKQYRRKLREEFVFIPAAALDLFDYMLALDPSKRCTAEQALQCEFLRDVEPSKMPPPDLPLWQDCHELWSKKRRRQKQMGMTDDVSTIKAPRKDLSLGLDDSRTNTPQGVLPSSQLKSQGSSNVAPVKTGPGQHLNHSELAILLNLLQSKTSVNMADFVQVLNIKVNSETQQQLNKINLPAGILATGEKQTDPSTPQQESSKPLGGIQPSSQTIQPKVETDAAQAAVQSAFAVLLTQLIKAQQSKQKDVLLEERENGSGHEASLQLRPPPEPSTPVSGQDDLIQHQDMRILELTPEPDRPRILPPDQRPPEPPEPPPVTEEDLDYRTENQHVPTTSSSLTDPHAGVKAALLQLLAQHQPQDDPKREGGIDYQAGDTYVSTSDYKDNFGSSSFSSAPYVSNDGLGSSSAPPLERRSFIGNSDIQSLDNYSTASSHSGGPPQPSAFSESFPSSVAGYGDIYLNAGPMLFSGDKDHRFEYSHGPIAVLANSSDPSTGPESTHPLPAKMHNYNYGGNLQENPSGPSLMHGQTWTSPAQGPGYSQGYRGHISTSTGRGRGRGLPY
Sequence of CDK13 (O75909 whole entry partner): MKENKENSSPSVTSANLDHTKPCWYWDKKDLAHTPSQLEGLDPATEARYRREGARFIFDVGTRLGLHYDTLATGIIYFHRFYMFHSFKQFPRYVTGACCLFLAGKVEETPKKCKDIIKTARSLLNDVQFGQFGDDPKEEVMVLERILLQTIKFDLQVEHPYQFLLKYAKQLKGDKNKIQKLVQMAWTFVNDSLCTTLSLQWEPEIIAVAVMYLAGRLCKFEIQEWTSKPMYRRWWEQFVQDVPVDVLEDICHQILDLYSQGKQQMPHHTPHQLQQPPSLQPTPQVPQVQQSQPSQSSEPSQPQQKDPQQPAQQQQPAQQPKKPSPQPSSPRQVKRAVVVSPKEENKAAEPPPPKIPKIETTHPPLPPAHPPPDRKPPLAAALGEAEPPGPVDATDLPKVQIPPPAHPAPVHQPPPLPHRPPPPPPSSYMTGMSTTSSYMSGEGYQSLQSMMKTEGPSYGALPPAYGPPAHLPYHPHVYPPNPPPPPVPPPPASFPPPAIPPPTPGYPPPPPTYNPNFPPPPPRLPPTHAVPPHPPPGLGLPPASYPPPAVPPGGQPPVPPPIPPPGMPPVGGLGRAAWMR
Sequence of CDK12 (Q9NYV4 whole entry): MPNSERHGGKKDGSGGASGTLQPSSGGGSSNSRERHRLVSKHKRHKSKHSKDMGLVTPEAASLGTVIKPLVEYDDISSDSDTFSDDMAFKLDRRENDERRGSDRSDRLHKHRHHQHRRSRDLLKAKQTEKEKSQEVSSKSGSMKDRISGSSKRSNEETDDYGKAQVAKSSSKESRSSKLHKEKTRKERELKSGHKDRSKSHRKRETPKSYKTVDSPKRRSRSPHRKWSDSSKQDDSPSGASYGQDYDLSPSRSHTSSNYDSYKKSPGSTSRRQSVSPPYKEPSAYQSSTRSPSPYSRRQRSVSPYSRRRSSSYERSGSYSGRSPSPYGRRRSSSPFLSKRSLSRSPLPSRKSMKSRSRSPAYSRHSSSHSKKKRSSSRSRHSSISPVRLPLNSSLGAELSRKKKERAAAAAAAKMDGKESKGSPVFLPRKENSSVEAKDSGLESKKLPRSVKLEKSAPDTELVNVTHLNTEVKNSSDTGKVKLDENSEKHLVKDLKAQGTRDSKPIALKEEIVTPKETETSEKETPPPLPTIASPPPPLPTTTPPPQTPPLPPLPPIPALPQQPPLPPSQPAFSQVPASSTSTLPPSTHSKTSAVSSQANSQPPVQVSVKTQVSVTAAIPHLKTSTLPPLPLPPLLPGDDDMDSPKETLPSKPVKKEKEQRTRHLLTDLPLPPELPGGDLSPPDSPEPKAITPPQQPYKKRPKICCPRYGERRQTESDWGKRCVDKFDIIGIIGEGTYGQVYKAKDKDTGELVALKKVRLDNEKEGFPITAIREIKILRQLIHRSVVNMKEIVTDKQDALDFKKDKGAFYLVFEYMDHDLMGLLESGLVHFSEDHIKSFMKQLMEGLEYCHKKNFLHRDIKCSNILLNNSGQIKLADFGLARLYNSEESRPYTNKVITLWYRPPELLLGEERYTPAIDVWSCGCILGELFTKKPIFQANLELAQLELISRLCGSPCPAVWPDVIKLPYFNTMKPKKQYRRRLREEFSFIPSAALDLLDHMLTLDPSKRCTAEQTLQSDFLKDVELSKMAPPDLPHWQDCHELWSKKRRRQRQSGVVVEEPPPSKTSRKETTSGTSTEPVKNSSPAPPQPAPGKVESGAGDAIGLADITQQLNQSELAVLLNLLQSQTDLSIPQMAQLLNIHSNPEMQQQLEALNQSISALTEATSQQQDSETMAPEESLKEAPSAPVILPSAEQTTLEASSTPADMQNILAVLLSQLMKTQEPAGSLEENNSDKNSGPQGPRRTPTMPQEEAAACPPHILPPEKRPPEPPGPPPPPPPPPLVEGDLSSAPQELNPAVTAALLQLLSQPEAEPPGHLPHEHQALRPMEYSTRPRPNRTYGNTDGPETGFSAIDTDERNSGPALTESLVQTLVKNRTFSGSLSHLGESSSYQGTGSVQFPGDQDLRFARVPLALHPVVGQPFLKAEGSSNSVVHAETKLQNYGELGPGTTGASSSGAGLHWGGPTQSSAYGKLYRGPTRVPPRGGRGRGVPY
Sequence of CDK12 (O75909 whole entry partner): as the sequence (O75909 whole entry partner) above

| Compound | DC50 (CDK13) | DC50 (CDK12) | half-life [1] | half-life [2] | half-life [3] | half-life [4] | phosphorylation of serine 2 in the C-terminal domain of RNA polymerase II (CTD-pSer2) [5] |
| --- | --- | --- | --- | --- | --- | --- | --- |
| Cc1ncsc1-c1ccc([C@H](C)NC(=O)[C@@H]2C[C@@H](O)CN2C(=O)[C@@H](NC(=O)CN2CCN(c3ccc(-c4ccc(N(C(=O)NCc5ccccc5)[C@H]5CC[C@H](Nc6ccc(C#N)cn6)CC5)cc4)cn3)CC2)C(C)(C)C)cc1 [Formula 18] | < 100 nM | < 100 nM | > 45 min | > 45 min | > 45 min | > 45 min |  |
| N#Cc1ccc(NC2CCC(N(C(=O)NCc3ccccc3)c3ccc(-c4ccc(=O)n(CCOCCOCCNc5cccc6c5C(=O)N(C5CCC(=O)NC5=O)C6=O)c4)cc3)CC2)nc1 (stereo not drawn) [Formula 47] | 1000 to 3000 nM | 500 to 1000 nM |  |  |  |  | can dose-dependently downregulate the phosphorylation of serine 2 |
